Numbers after ± are expanded uncertainties.
Assay: xn = mol fraction of the nth substance listed
Settings: 100 kPa, Liquid; for speed of sound: Frequency=2 MHz, Linear variable-path acoustic interferometer; for mass density: Vibrating tube method

Cc1ccc(Cl)cc1 [4-chlorotoluene] + CCCCCCCCCO
Settings	mass density, 293.15 K [kg/m3]	mass density, 298.15 K [kg/m3]	mass density, 303.15 K [kg/m3]	mass density, 308.15 K [kg/m3]	speed of sound, 293.15 K [m/s]	speed of sound, 298.15 K [m/s]	speed of sound, 303.15 K [m/s]	speed of sound, 308.15 K [m/s]
x1 = 0.0835	842 ± 4	839 ± 4	835 ± 4	832 ± 4	1376.5 ± 4	1358.3 ± 4	1346.4 ± 4	1322.8 ± 4
x1 = 0.1905	862 ± 4	858 ± 4	855 ± 4	851 ± 4	1369.2 ± 4	1347.9 ± 4	1334.9 ± 4	1311.7 ± 4
x1 = 0.2888	881 ± 4	877 ± 4	873 ± 4	869 ± 4	1360.5 ± 4	1337.3 ± 4	1323.5 ± 4	1300.5 ± 4
x1 = 0.3983	904 ± 4	900 ± 4	896 ± 4	891 ± 4	1350 ± 4	1324.8 ± 4	1310.6 ± 4	1287.6 ± 4
x1 = 0.4948	925 ± 4	921 ± 4	917 ± 4	912 ± 4	1340.2 ± 4	1313.6 ± 4	1298.7 ± 4	1276.4 ± 4
x1 = 0.594	949 ± 4	945 ± 4	940 ± 4	935 ± 4	1330 ± 4	1303 ± 4	1287.9 ± 4	1266 ± 4
x1 = 0.6925	974 ± 4	970 ± 4	965 ± 4	960 ± 4	1321 ± 4	1294.2 ± 4	1278.5 ± 4	1257.4 ± 4
x1 = 0.7952	1003 ± 4	999 ± 4	994 ± 4	988 ± 4	1313 ± 4	1287.5 ± 4	1271.4 ± 4	1250.9 ± 3.9
x1 = 0.899	1035 ± 4	1031 ± 4	1025 ± 4	1020 ± 4	1308 ± 4	1284.9 ± 4	1267.7 ± 4	1248.9 ± 3.9
x1 = 1	1069 ± 4	1065 ± 4	1060 ± 4	1054 ± 4	1306.4 ± 4	1288.2 ± 4	1270 ± 3.9	1252.1 ± 3.9

Cc1ccccc1Cl [2-chlorotoluene] + CCCCCCCCCO
Settings	mass density, 293.15 K [kg/m3]	mass density, 298.15 K [kg/m3]	mass density, 303.15 K [kg/m3]	mass density, 308.15 K [kg/m3]	speed of sound, 293.15 K [m/s]	speed of sound, 298.15 K [m/s]	speed of sound, 303.15 K [m/s]	speed of sound, 308.15 K [m/s]
x1 = 0.0846	843 ± 4	840 ± 4	836 ± 4	832 ± 4	1375.9 ± 4	1360.1 ± 4	1348.7 ± 4	1325.2 ± 4
x1 = 0.1974	864 ± 4	861 ± 4	857 ± 4	853 ± 4	1367.7 ± 4	1351.5 ± 4	1339.2 ± 4	1315.5 ± 4
x1 = 0.2911	883 ± 4	880 ± 4	876 ± 4	872 ± 4	1359.7 ± 4	1342.9 ± 4	1329.6 ± 4	1305.8 ± 4
x1 = 0.3964	906 ± 4	902 ± 4	898 ± 4	894 ± 4	1349.9 ± 4	1331.9 ± 4	1318.6 ± 4	1294 ± 4
x1 = 0.4896	928 ± 4	924 ± 4	920 ± 4	915 ± 4	1341.3 ± 4	1322.3 ± 4	1308.2 ± 4	1284 ± 4
x1 = 0.5943	954 ± 4	950 ± 4	946 ± 4	941 ± 4	1331.5 ± 4	1312.2 ± 4	1298 ± 4	1273.4 ± 4
x1 = 0.6918	981 ± 4	976 ± 4	972 ± 4	967 ± 4	1324 ± 4	1304.4 ± 4	1290 ± 4	1265.8 ± 4
x1 = 0.7948	1011 ± 4	1007 ± 4	1002 ± 4	997 ± 4	1318 ± 4	1298.5 ± 4	1284 ± 4	1260.8 ± 4
x1 = 0.898	1045 ± 4	1040 ± 4	1036 ± 4	1031 ± 4	1315.2 ± 4	1297 ± 4	1280.7 ± 4	1259.9 ± 4
x1 = 1	1082 ± 4	1077 ± 4	1073 ± 4	1068 ± 4	1317 ± 4	1299.7 ± 4	1283.9 ± 4	1265.8 ± 4

CCCCCCCCCO [nonan-1-ol] + ClCCCl
Settings	mass density, 293.15 K [kg/m3]	mass density, 298.15 K [kg/m3]	mass density, 303.15 K [kg/m3]	mass density, 308.15 K [kg/m3]	speed of sound, 293.15 K [m/s]	speed of sound, 298.15 K [m/s]	speed of sound, 303.15 K [m/s]	speed of sound, 308.15 K [m/s]
x2 = 0	828 ± 4	824 ± 4	821 ± 4	818 ± 4	1380.5 ± 4	1364.7 ± 4	1348.1 ± 4	1330.5 ± 4
x2 = 0.0922	845 ± 4	841 ± 4	838 ± 4	834 ± 4	1357.5 ± 4	1341.4 ± 4	1329.7 ± 4	1305.2 ± 4
x2 = 0.2067	869 ± 4	866 ± 4	862 ± 4	858 ± 4	1332.2 ± 4	1315.5 ± 4	1301.2 ± 4	1277.5 ± 4
x2 = 0.2984	892 ± 4	888 ± 4	884 ± 4	880 ± 4	1313.7 ± 4	1296.8 ± 4	1280.6 ± 4	1257.8 ± 4
x2 = 0.406	922 ± 4	918 ± 4	914 ± 4	909 ± 4	1293.1 ± 4	1275.5 ± 4	1258 ± 4	1235 ± 3.9
x2 = 0.4896	950 ± 4	946 ± 4	941 ± 4	936 ± 4	1277.3 ± 4	1260.3 ± 3.9	1242.2 ± 3.9	1219 ± 3.9
x2 = 0.6039	994 ± 4	989 ± 4	984 ± 4	979 ± 4	1258.2 ± 3.9	1240.6 ± 3.9	1221.4 ± 3.9	1199 ± 3.9
x2 = 0.6928	1035 ± 4	1030 ± 4	1025 ± 4	1019 ± 4	1243.5 ± 3.9	1226.4 ± 3.9	1206.5 ± 3.9	1184.8 ± 3.9
x2 = 0.8087	1101 ± 4	1095 ± 4	1089 ± 4	1083 ± 4	1227.5 ± 3.9	1210.5 ± 3.9	1190 ± 3.9	1169 ± 3.9
x2 = 0.9063	1170 ± 4	1163 ± 4	1157 ± 4	1150 ± 4	1216.7 ± 3.9	1199 ± 3.9	1179.2 ± 3.9	1159.9 ± 3.9

Cc1cccc(Cl)c1 [3-chlorotoluene] + CCCCCCCCCO
Settings	mass density, 293.15 K [kg/m3]	mass density, 298.15 K [kg/m3]	mass density, 303.15 K [kg/m3]	mass density, 308.15 K [kg/m3]	speed of sound, 293.15 K [m/s]	speed of sound, 298.15 K [m/s]	speed of sound, 303.15 K [m/s]	speed of sound, 308.15 K [m/s]
x1 = 0.0967	844 ± 4	841 ± 4	838 ± 4	834 ± 4	1374.3 ± 4	1357.5 ± 4	1345.4 ± 4	1320.9 ± 4
x1 = 0.1893	861 ± 4	858 ± 4	854 ± 4	850 ± 4	1366.3 ± 4	1348.2 ± 4	1335.6 ± 4	1310.1 ± 4
x1 = 0.2985	883 ± 4	879 ± 4	875 ± 4	871 ± 4	1355.3 ± 4	1336.2 ± 4	1323 ± 4	1297.4 ± 4
x1 = 0.3926	902 ± 4	898 ± 4	894 ± 4	890 ± 4	1345 ± 4	1325.6 ± 4	1310.9 ± 4	1286 ± 4
x1 = 0.4834	923 ± 4	919 ± 4	914 ± 4	910 ± 4	1335.2 ± 4	1315.2 ± 4	1300 ± 4	1275.7 ± 4
x1 = 0.5953	950 ± 4	945 ± 4	941 ± 4	937 ± 4	1323.7 ± 4	1303.7 ± 4	1288.3 ± 4	1264.9 ± 4
x1 = 0.6918	975 ± 4	970 ± 4	966 ± 4	961 ± 4	1315.7 ± 4	1296 ± 4	1280.3 ± 4	1257.6 ± 4
x1 = 0.7946	1004 ± 4	1000 ± 4	995 ± 4	990 ± 4	1310.2 ± 4	1291.2 ± 4	1274.7 ± 4	1254 ± 4
x1 = 0.8963	1036 ± 4	1031 ± 4	1027 ± 4	1022 ± 4	1308.7 ± 4	1290.7 ± 4	1273.6 ± 4	1253.9 ± 4
x1 = 1	1072 ± 4	1067 ± 4	1063 ± 4	1058 ± 4	1313.8 ± 4	1296.5 ± 4	1279.5 ± 4	1261.2 ± 4
